Source: patent US7598244B2, “[1,2,4]triazolo[1,5,a]pyrimidin-2-ylurea derivative and use thereof” (Nippon Kayaku Kabushiki Kaisha, priority 2003, dated 2009)

tested on: MHC class I molecules of T1 cells (human lymphoma cell line 174×CEM.); experiment: Effect on expression of MHC class I from T1 cells (flow cytometry, MFI); format: cell-based; conditions: 3 days culture
Summary of the method: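 EC20 is the compound level that lowers MHC class I MFI by 20% relative to compound-free cultures. Read-out was flow cytometry after FITC W6/32 staining.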

In order of rising “EC20 (concentration necessary for suppressing 20% of the expression level of MHC class I molecules)” value:
1. CC(C)CCC[C@H](C)NC(=O)Nc1nc2nccc(-c3ccc(O)cc3)n2n1 [Example 255, (S)-1-(1,5-dimethylhexyl)-3-[7-(4-hydroxyphenyl)-[1,2,4]triazolo[1,5-a]pyrimidin-2-yl]urea]  5.6 nM
2. COCCOCCOCCOc1ccc(-c2ccnc3nc(NC(=O)N[C@@H](C)CCCC(C)C)nn23)cc1 [Example 263]  7.9 nM
3. CC(C)CCC[C@H](C)NC(=O)Nc1nc2nccc(-c3ccc(OCCN4CCOCC4)cc3)n2n1.Cl [Example 258, (S)-1-(1,5-dimethylhexyl)-3-{7-[4-(2-morpholin-4-ylethoxy)phenyl]-[1,2,4]triazolo[1,5-a]pyrimidin-2-yl}urea hydrochloride]  8.7 nM
4. COc1cccc([C@H](C)NC(=O)Nc2nc3nccc(-c4ccc(OCCCN5CCOCC5)cc4)n3n2)c1 [Example 248]  14 nM
5. CC(C)CCC[C@H](C)NC(=O)Nc1nc2nccc(-c3cccc(O)c3)n2n1 [Example 257]  30 nM
6. COCCOc1ccc(-c2ccnc3nc(NC(=O)N[C@@H](C)CCCC(C)C)nn23)cc1 [Example 262, (S)-1-(1,5-dimethylhexyl)-3-{7-[4-(2-methoxyethoxy)phenyl]-[1,2,4]triazolo[1,5-a]pyrimidin-2-yl}urea]  30 nM
7. COc1ccc(-c2ccnc3nc(NC(=O)NCc4cc(OC)c(OC)c(OC)c4)nn23)cc1 [Example 247]  37 nM
8. CC(C)CCC[C@H](C)NC(=O)Nc1nc2nccc(-c3cccs3)n2n1 [Example 246]  50 nM
9. COCCOc1ccc(-c2ccnc3nc(NC(=O)N[C@@H](C)CCCC(C)C)nn23)cc1OCCOC [Example 252]  50 nM
10. COCCOc1ccc(-c2ccnc3nc(NC(=O)N[C@@H](C)c4cccc(OC)c4)nn23)cc1OCCOC [Example 251]  60 nM
11. CC(C)CCC[C@H](C)NC(=O)Nc1nc2nccc(-c3cccc(OCCN4CCOCC4)c3)n2n1 [Example 259]  60 nM
12. CC(C)CCC[C@H](C)NC(=O)Nc1nc2nccc(-c3cccc(OCC4CCCO4)c3)n2n1 (some centres unmarked) [Example 260]  60 nM
13. COc1cccc([C@H](C)NC(=O)Nc2nc3nccc(-c4cccc(OCCCN5CCOCC5)c4)n3n2)c1 [Example 249]  70 nM
14. COCCOc1cccc(-c2ccnc3nc(NC(=O)N[C@@H](C)CCCC(C)C)nn23)c1 [Example 264]  70 nM
15. CC(C)CCC[C@H](C)NC(=O)Nc1nc2nccc(-c3cccc(OCc4cccnc4)c3)n2n1 [Example 261]  80 nM
16. COCCOCCOCCOc1cccc(-c2ccnc3nc(NC(=O)N[C@@H](C)CCCC(C)C)nn23)c1 [Example 265]  110 nM
17. C[C@H](NC(=O)Nc1nc2nccc(-c3ccc(O)cc3)n2n1)c1cccc(O)c1 [Example 266]  200 nM
18. CC(C)CCC[C@H](C)NC(=O)Nc1nc2nccc(-c3ccc(OCc4ccccc4)cc3)n2n1 [Example 254]  230 nM
19. COc1cccc([C@H](C)NC(=O)Nc2nc3nccc(-c4cccc(OCC(=O)N5CCOCC5)c4)n3n2)c1 [Example 253]  270 nM
20. CC(C)CCC[C@H](C)NC(=O)Nc1nc2nccc(-c3cccc(OCc4ccccc4)c3)n2n1 [Example 256]  550 nM
